Read-outs that look alike come from different tables or passages of the source.
Key:
[1] = target: T1, recombinant soluble tissue factor and recombinant human factor VIIa (TF-VIIa) (Homo sapiens, UniProt P08709); assay: TF-VIIa Assay; assay type: biochemical; details: for % Inhibition TF-VIIa (100 µM): inhibitor at 100 µM
T1 construct: conversion of coagulation factor VII to VIIa by Xa; purchased American Diagnostica, Greenwich Conn; host or cells: VIIa purchased; soluble TF made in house in E. coli
T1 sequence (P08709 61-212 limits assumed): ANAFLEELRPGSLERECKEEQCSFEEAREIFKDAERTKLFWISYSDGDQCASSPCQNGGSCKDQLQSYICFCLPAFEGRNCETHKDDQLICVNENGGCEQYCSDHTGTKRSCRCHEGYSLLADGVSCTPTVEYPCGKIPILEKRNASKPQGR
T1 sequence (P08709 213-466 limits assumed): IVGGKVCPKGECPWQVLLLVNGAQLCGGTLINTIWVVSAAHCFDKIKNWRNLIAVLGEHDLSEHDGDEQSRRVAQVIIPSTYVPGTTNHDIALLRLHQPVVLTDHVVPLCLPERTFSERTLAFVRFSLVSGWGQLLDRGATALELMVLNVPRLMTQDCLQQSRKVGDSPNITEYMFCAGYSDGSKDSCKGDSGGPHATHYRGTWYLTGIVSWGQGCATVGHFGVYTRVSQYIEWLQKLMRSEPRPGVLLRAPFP
T1 sequence (P13726 33-251 partner limits assumed): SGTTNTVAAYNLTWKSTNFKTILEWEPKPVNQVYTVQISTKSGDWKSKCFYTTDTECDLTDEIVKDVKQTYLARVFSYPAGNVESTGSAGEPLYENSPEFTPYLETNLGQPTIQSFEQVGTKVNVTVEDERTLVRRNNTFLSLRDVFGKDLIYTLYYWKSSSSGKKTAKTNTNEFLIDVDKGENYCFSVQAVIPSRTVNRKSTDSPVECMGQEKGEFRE

[2] = target: T2, Human thrombin (Homo sapiens, UniProt P00734); assay: biochemical; details: for inhibition at 100 µM: read-out: % Inhibition Thrombin II at 100 μM
[3] = target: Human factor Xa (Homo sapiens, UniProt P00742); assay: Xa Assay; assay type: biochemical; parameters: purchased Enzyme Research Laboratories, South Bend Ind; details: for % Inhibition Factor Xa (30 µM): at 30 µM inhibitor; for % Inhibition Factor Xa (100 µM): inhibitor at 100 µM
Sequence of Human factor Xa (P00742 41-179 limits assumed): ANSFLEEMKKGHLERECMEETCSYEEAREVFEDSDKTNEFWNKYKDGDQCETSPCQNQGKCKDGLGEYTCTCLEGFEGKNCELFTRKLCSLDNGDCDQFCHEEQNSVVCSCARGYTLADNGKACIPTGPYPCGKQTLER
Sequence of Human factor Xa (P00742 235-488 limits assumed): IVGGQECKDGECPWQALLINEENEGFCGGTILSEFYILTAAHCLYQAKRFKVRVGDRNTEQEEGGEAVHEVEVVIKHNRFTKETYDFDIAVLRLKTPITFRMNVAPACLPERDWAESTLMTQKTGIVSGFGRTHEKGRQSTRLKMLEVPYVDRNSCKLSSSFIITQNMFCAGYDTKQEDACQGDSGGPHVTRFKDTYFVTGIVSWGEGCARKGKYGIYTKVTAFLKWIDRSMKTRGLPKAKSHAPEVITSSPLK

[4] = target: T2, Human thrombin

Compound | IC50 ([1]; read-out: IC50 TF-VIIa) | IC50 [2] | % Inhibition TF-VIIa (100 µM) [1] | % Inhibition Factor Xa (100 µM) [3] | further results
CC(C)Nc1nc(Cl)c(-c2cc(N)cc(C(=O)NCc3ccccc3C(F)(F)F)c2)n(CC(=O)NCc2ccc(C(=N)N)cc2)c1=O [Example 128-11] | 0.0114 µM | – | – | – | inhibition at 100 µM [2]: 46%; inhibition at 100 µM ([3]; at 100 μM inhibitor): 35%
N=C(N)c1ccc(CNC(=O)Cn2c(-c3cccc(C(=N)N)c3)c(Cl)nc(NC3CCC3)c2=O)cc1 [Example 114] | 0.38 µM | 4.3 µM | – | – | IC50 [3]: 6.5 µM
COCCNC(=N)c1ccc(CNC(=O)Cn2c(-c3cccc(N)c3)c(Cl)nc(NC3CCC3)c2=O)cc1 [Example 163] | 40 µM | – | – | – | % Inhibition Thrombin II (30 µM) [4]: 4%
N=C(N)c1ccc(CNCCn2c(-c3cccc(N)c3)c(Cl)nc(NC3CCC3)c2=O)cc1 [Example 139] | 4.71 µM | 35.8 µM | – | – | inhibition at 100 µM ([3]; at 100 μM inhibitor): 41%
Nc1cccc(-c2c(Cl)nc(NC3CCC3)c(=O)n2CC(=O)NCc2ccc(-c3noc(=O)[nH]3)cc2)c1 [Example 152] | – | > 30 µM | – | – | inhibition at 30 µM ([1]; 1 h, at 30 µM inhibitor): 28%; IC50 [3]: > 30 µM
CC(C)Nc1nc(Br)c(-c2cccc(N)c2)n(CC(=O)NCc2ccc(C(=N)N)cc2)c1=O [Example 124] | 0.016 µM | 4.68 µM | – | – | % Inhibition Factor Xa (30 µM) [3]: 17%
CC(C)Nc1nc(Cl)c(-c2cc(N)cc(C(=O)NC3CCC3)c2)n(CC(=O)NCc2ccc(C(=N)N)cc2)c1=O [Example 128-15] | 0.0066 µM | 13.3 µM | – | – | inhibition at 100 µM ([3]; at 100 μM inhibitor): 32%
CC(C)Nc1nc(Cl)c(-c2cccc(N)c2)n(CC(=O)NNc2ccc(C(=N)N)cc2)c1=O [Example 157] | 0.7 µM | 35 µM | – | – | IC50 [3]: 64 µM
N=C(N)c1ccc(CNC(=O)Cn2c(-c3ccc(N)cc3)c(Cl)nc(NC3CCC3)c2=O)cc1 [Example 115] | 0.55 µM | 7.5 µM | – | – | % Inhibition Factor Xa (30 µM) [3]: 10%
O=C(Cn1c(-c2cccc(Cl)c2)c(Cl)nc(NCCc2cccc(Cl)c2)c1=O)NCCc1cccnc1 [Example E-0080] | – | – | 1% | 4% | –
CC(CC(=O)O)Nc1nc(Cl)c(-c2cccc(N)c2)n(CC(=O)NCc2ccc(C(=N)N)cc2)c1=O (centres unmarked) [Example 130] | – | – | – | – | IC50 ([1]; read-out: IC50 TF-VIIa, cell printed 'at 100 μM' without %, cell adds 'at 100 μM'): 0.18 µM; % Inhibition Factor Xa at 100 μM ([3]; at 100 μM inhibitor): 24% at 100 μM
N=C(N)c1ccc(CNC(=O)Cn2c(-c3ccccc3)c(Cl)nc(NCc3ccccn3)c2=O)cc1 [1507-24] | – | – | – | – | % Inhibition TF-VIIa (30 µM) ([1]; at 30 µM inhibitor): 0%; % Inhibition Factor Xa (30 µM) [3]: 15%
O=C(Cn1c(-c2ccc(Cl)cc2)c(Cl)nc(NCCc2ccccc2)c1=O)NCCc1ccncc1 [Example E-0018] | – | – | 1% | 0% | –
O=C(Cn1c(-c2ccc3c(c2)OCO3)c(Cl)nc(NCc2ccncc2)c1=O)NCCc1ccncc1 [Example E-0048] | – | – | 0% | 0% | –
COc1ccc(-c2c(Cl)nc(NCc3ccccc3)c(=O)n2CC(=O)NCCc2ccncc2)cc1 [Example E-0033] | – | – | 0% | 0% | –
O=C(Cn1c(-c2cccc(Cl)c2)c(Cl)nc(NCc2ccccc2)c1=O)NCCc1cccnc1 [Example E-0074] | – | – | 0% | 0% | –
N/N=C(/N)c1ccc(CNC(=O)Cn2c(-c3cccc(N)c3)c(Cl)nc(NC3CCC3)c2=O)cc1 [Example 148] | 7.03 µM | – | – | – | inhibition at 100 µM [2]: 4%; inhibition at 100 µM ([3]; at 100 μM inhibitor): 8%
O=C(Cn1c(-c2ccc3c(c2)OCO3)c(Cl)nc(NCc2ccccc2)c1=O)NCCc1ccncc1 [Example E-0041] | – | – | 0% | 0% | –
N=C(N)c1ccc(CNC(=O)Cn2c(-c3ccc(Cl)cc3)c(Cl)nc(NCCN3CCOCC3)c2=O)cc1 [1471-20] | – | – | – | – | % Inhibition TF-VIIa (30 µM) ([1]; at 30 µM inhibitor): 42%; % Inhibition Factor Xa (30 µM) [3]: 34%
COc1ccc(-c2c(Cl)nc(NCc3ccccc3)c(=O)n2CC(=O)NCCc2cccnc2)cc1 [Example E-0098] | – | – | 0% | 2% | –
O=C(Cn1c(-c2ccc(Cl)cc2)c(Cl)nc(NCc2ccncc2)c1=O)NCCc1ccncc1 [Example E-0024] | – | – | 0% | 0% | –
Cc1c(Cl)nc(NCCN2CCOCC2)c(=O)n1CC(=O)NCCc1ccncc1 [Example E-0007] | – | – | 0% | 0% | –
CSc1ccc(N)cc1-c1c(Cl)nc(NC(C)C)c(=O)n1CC(=O)NCc1ccc(C(=N)N)cc1 [Example 111] | 0.12 µM | > 30 µM | – | – | IC50 [3]: > 30 µM
N=C(N)c1ccc(COCCn2c(-c3cccc(N)c3)c(Cl)nc(NC3CCC3)c2=O)cc1 [Example 140] | 13.3 µM | 47.4 µM | – | – | inhibition at 100 µM ([3]; at 100 μM inhibitor): 24%

Source: US6908919B2, “Substituted polycyclic aryl and heteroaryl pyrazinones useful for selective inhibition of the coagulation cascade” (Pharmacia Corporation, priority 1999, dated 2005)
